From PubChem BioAssay AID330 (DTP/NCI, 2004)
Values joined by “and” are separate entries in the source; they are usually repeats but may differ in a detail not shown here. Equal values may be shown once. Toxic doses and inconclusive results are not listed. The calls were made as follows: active = survival T/C of 150% or more; inactive = T/C below 125% in these data.

Test system: P388 leukemia ip, CD2F1 mice, survival T/C
Assay: NCI In Vivo Anticancer Drug Screen. Data for tumor model P388 Leukemia (intraperitoneal) in CD2F1 (CDF1) mice
Details: endpoint: median survival time, higher = longer survival
Summary of the method: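 Mice carrying the transplanted tumor received test compound or vehicle. Survival was recorded in each group, and the value is the treated-group measurement divided by that of the vehicle-treated control group.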

[1] = dose: 50.0 mg/kg/injection, schedule: Q01DX005 (ip), vehicle: Klucel (hydroxypropylcellulose) (HPC)
[2] = dose: 200.0 mg/kg/injection, schedule: Q01DX005 (ip), vehicle: Klucel (hydroxypropylcellulose) (HPC)
[3] = dose: 50.0 mg/kg/injection, schedule: Q01DX005 (ip), vehicle: saline
[4] = dose: 50.0 mg/kg/injection, schedule: Q01DX005 (ip), vehicle: saline with Tween-80
[5] = dose: 100.0 mg/kg/injection, schedule: Q01DX005 (ip), vehicle: saline with Tween-80
[6] = dose: 200.0 mg/kg/injection, schedule: Q01DX005 (ip), vehicle: saline with Tween-80
[7] = dose: 100.0 mg/kg/injection, schedule: Q01DX001 (ip), vehicle: saline with Tween-80
[8] = dose: 100.0 mg/kg/injection, schedule: Q01DX005 (ip), vehicle: Klucel (hydroxypropylcellulose) (HPC)
[9] = dose: 50.0 mg/kg/injection, schedule: Q01DX009 (ip), vehicle: saline
[10] = dose: 100.0 mg/kg/injection, schedule: Q01DX009 (ip), vehicle: saline
[11] = dose: 200.0 mg/kg/injection, schedule: Q01DX009 (ip), vehicle: saline

Measured: T/C

CCCCOC(=O)NP1(=O)NCc2ccccc2CN1
inactive: dose: 12.5 mg/kg/injection, schedule: Q01DX005 (ip), vehicle: Klucel (hydroxypropylcellulose) (HPC) 93 % of control | dose: 25.0 mg/kg/injection, schedule: Q01DX005 (ip), vehicle: Klucel (hydroxypropylcellulose) (HPC) 87 % of control | [1] 91 % of control and 93 % of control | [2] 91 % of control

O=S(=O)(Nc1ccccn1)c1ccc(NC2OC(CO)C(O)C(O)C2O)cc1 (centres undefined)
inactive: [3] 103 % of control | dose: 100.0 mg/kg/injection, schedule: Q01DX005 (ip), vehicle: saline 98 % of control | dose: 200.0 mg/kg/injection, schedule: Q01DX005 (ip), vehicle: saline 103 % of control

Cc1c(C#N)sc2ccccc12
inactive: dose: 25.0 mg/kg/injection, schedule: Q01DX009 (ip), vehicle: other 96 % of control | dose: 50.0 mg/kg/injection, schedule: Q01DX009 (ip), vehicle: other 105 % of control | dose: 100.0 mg/kg/injection, schedule: Q01DX009 (ip), vehicle: other 89 % of control

O=C1C=C2C=CC3CC2(O1)C1CCCCN31 (centres undefined)
inactive: dose: 6.25 mg/kg/injection, schedule: Q04DX002 (ip), vehicle: saline with Tween-80 113 % of control | dose: 10.0 mg/kg/injection, schedule: Q01DX010 (ip), vehicle: saline 90 % of control | dose: 12.5 mg/kg/injection, schedule: Q04DX002 (ip), vehicle: saline with Tween-80 106 % of control | dose: 20.0 mg/kg/injection, schedule: Q01DX010 (ip), vehicle: saline 90 % of control | dose: 25.0 mg/kg/injection, schedule: Q01DX010 (ip), vehicle: saline 90 % of control and 110 % of control | dose: 25.0 mg/kg/injection, schedule: Q04DX002 (ip), vehicle: saline with Tween-80 106 % of control | dose: 50.0 mg/kg/injection, schedule: Q01DX010 (ip), vehicle: saline 100 % of control and 110 % of control | dose: 100.0 mg/kg/injection, schedule: Q01DX010 (ip), vehicle: saline 100 % of control and 120 % of control

Brc1ccc[n+](CCc2ccccc2)c1
inactive: dose: 12.5 mg/kg/injection, schedule: Q01DX009 (ip), vehicle: saline with Tween-80 111 % of control | dose: 25.0 mg/kg/injection, schedule: Q01DX009 (ip), vehicle: saline with Tween-80 98 % of control

CCOC(=O)C(C)C(=O)C(C)N1C(=O)c2ccccc2C1=O (centres undefined)
inactive: dose: 25.0 mg/kg/injection, schedule: Q04DX003 (ip), vehicle: other 102 % of control | dose: 50.0 mg/kg/injection, schedule: Q04DX003 (ip), vehicle: other 96 % of control | dose: 100.0 mg/kg/injection, schedule: Q04DX003 (ip), vehicle: other 93 % of control | dose: 200.0 mg/kg/injection, schedule: Q04DX003 (ip), vehicle: other 93 % of control | dose: 400.0 mg/kg/injection, schedule: Q04DX003 (ip), vehicle: other 91 % of control

COc1cc(C(=O)N=Nc2c(O)[nH]c3ccc(Br)cc23)cc(OC)c1OC
inactive: dose: 3.13 mg/kg/injection, schedule: Q01DX009 (ip), vehicle: Klucel (hydroxypropylcellulose) (HPC) 115 % of control | dose: 6.25 mg/kg/injection, schedule: Q01DX009 (ip), vehicle: Klucel (hydroxypropylcellulose) (HPC) 106 % of control | dose: 12.5 mg/kg/injection, schedule: Q01DX009 (ip), vehicle: Klucel (hydroxypropylcellulose) (HPC) 105 % of control | dose: 400.0 mg/kg/injection, schedule: Q01DX009 (ip), vehicle: Klucel (hydroxypropylcellulose) (HPC) 86 % of control

CC(=O)OC(c1ccccc1)N(Cc1ccccc1)N=O (centres undefined)
inactive: dose: 12.5 mg/kg/injection, schedule: Q01DX009 (ip), vehicle: distilled water + Tween-80 111 % of control | dose: 25.0 mg/kg/injection, schedule: Q01DX009 (ip), vehicle: distilled water + Tween-80 111 % of control | dose: 50.0 mg/kg/injection, schedule: Q01DX009 (ip), vehicle: distilled water + Tween-80 118 % of control | dose: 100.0 mg/kg/injection, schedule: Q01DX009 (ip), vehicle: distilled water + Tween-80 117 % of control | dose: 200.0 mg/kg/injection, schedule: Q01DX009 (ip), vehicle: distilled water + Tween-80 119 % of control

O=C1CSC(c2ccc([N+](=O)[O-])cc2[N+](=O)[O-])N1c1nncs1 (centres undefined)
inactive: [4] 95 % of control | [5] 95 % of control | [6] 95 % of control

CC1(C)O[Te]2(OC1(C)C)OC(C)(C)C(C)(C)O2
inactive: dose: 3.12 mg/kg/injection, schedule: Q01DX001 (ip), vehicle: saline with Tween-80 100 % of control | dose: 6.25 mg/kg/injection, schedule: Q01DX001 (ip), vehicle: saline with Tween-80 105 % of control | [7] 93 % of control

COC(=O)C1(C(=O)OC)ON1C(C)(C)C (centres undefined)
inactive: [1] 100 % of control | [8] 96 % of control | [2] 97 % of control

COc1c2occc2c(CCl)c2ccc(=O)oc12
inactive: dose: 15.0 mg/kg/injection, schedule: Q01DX005 (ip), vehicle: Klucel (hydroxypropylcellulose) (HPC) 115 % of control | dose: 30.0 mg/kg/injection, schedule: Q01DX005 (ip), vehicle: Klucel (hydroxypropylcellulose) (HPC) 111 % of control | dose: 60.0 mg/kg/injection, schedule: Q01DX005 (ip), vehicle: Klucel (hydroxypropylcellulose) (HPC) 111 % of control and 116 % of control

O=[N+]([O-])c1cccc(SNSc2cccc([N+](=O)[O-])c2)c1
inactive: dose: 100.0 mg/kg/injection, schedule: Q04DX002 (ip), vehicle: Klucel (hydroxypropylcellulose) (HPC) 90 % of control | dose: 200.0 mg/kg/injection, schedule: Q04DX002 (ip), vehicle: Klucel (hydroxypropylcellulose) (HPC) 88 % of control | dose: 400.0 mg/kg/injection, schedule: Q04DX002 (ip), vehicle: Klucel (hydroxypropylcellulose) (HPC) 94 % of control

NS(=O)(=O)c1ccc(N=NC2C(=O)N(C(=O)CC(=O)Nc3ccc(C(=O)O)cc3)N=C2c2ccccc2)cc1 (centres undefined)
inactive: [4] 97 % of control | [5] 92 % of control | [6] 90 % of control

O=C1Cc2c(Cl)cccc2C(=S)N1
inactive: dose: 50.0 mg/kg/injection, schedule: Q01DX001 (ip), vehicle: saline with Tween-80 100 % of control | [7] 100 % of control | dose: 200.0 mg/kg/injection, schedule: Q01DX001 (ip), vehicle: saline with Tween-80 100 % of control

O=C(Nc1n[nH]c(NC(=O)C(F)(F)F)n1)C(F)(F)F
inactive: [1] 103 % of control | [8] 103 % of control | [2] 100 % of control

COC(=O)CCSC(=O)Nc1cccc(C(F)(F)F)c1
inactive: [1] 97 % of control | [8] 98 % of control | [2] 104 % of control

[N-]=[N+]=NCC(O)COc1c2ccccc2nc2ccccc12 (centres undefined)
inactive: dose: 15.0 mg/kg/injection, schedule: Q01DX005 (ip), vehicle: saline with Tween-80 95 % of control | dose: 30.0 mg/kg/injection, schedule: Q01DX005 (ip), vehicle: saline with Tween-80 99 % of control | dose: 60.0 mg/kg/injection, schedule: Q01DX005 (ip), vehicle: saline with Tween-80 112 % of control

Cc1cccc(NC(=O)NC2CCCCC2)c1
inactive: [9] 103 % of control | [10] 102 % of control | [11] 93 % of control

NC(CCC(=O)NC(CSSCC(NC(=O)CCC(N)C(=O)O)C(=O)O)C(=O)O)C(=O)O (centres undefined)
inactive: dose: 12.5 mg/kg/injection, schedule: Q01DX005 (ip), vehicle: saline 94 % of control | dose: 25.0 mg/kg/injection, schedule: Q01DX005 (ip), vehicle: saline 99 % of control | [3] 99 % of control

CCOC(=O)CC(=O)c1ccc(Cl)cc1
inactive: dose: 25.0 mg/kg/injection, schedule: Q01DX009 (ip), vehicle: saline 100 % of control | [9] 100 % of control | [10] 104 % of control | [11] 101 % of control
